Measured values taken from patent US6355633B1, “Aryl sulfonic acids and derivatives as FSH antagonists” (American Home Products Corporation, priority 1999, dated 2002).
pIC50: −log10 of the molar value.

These compounds were tested against T1, FSH receptor (Rattus norvegicus, UniProt P20395) (assay: In Vitro Bio-test Procedure of Agonists and Antagonists to the FSH Receptor Using Primary Cultures of Rat Granulosa (estradiol secretion)). Conditions: not given.
T1 construct: endogenous in cells; host or cells: primary ovarian granulosa cells of DES-treated immature Sprague-Dawley rats
T1 sequence (P20395 18-692): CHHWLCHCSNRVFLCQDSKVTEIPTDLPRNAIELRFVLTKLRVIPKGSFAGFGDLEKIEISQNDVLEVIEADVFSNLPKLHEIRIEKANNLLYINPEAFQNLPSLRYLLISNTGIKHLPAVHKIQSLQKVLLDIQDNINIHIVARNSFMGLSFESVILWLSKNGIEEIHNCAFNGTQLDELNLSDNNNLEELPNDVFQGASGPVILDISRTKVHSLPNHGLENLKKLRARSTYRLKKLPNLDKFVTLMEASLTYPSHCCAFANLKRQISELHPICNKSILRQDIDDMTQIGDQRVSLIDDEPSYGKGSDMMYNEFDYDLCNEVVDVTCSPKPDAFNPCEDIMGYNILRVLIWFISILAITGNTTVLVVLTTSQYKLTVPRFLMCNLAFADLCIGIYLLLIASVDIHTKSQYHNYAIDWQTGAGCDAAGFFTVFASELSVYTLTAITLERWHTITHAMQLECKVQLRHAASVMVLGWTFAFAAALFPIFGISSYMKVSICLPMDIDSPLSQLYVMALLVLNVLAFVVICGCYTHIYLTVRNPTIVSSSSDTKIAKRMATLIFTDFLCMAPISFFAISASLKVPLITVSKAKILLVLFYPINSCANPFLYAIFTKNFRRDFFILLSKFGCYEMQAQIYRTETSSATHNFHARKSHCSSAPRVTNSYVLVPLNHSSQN
Type: cell-based
Method: In Vitro Bio-test Procedure of Agonists and Antagonists to the FSH Receptor Using Primary Cultures of Rat Granulosa
Materials and Methods: Reagents
The concentration of vehicle was maintained constant throughout all dilutions.
Preparation of Granulosa Cells: Twenty-four day-old immature female Sprague-Dawley rats (Charles River Laboratories, Wilmington, Mass.) were used as donors for ovarian granulosa cells. The animals were treated by single daily injections of 100 mg/kg diethylstilbestrol (DES) in oil over three days. On the fourth day, animals were sacrificed by CO2 asphyxiation and the ovaries were removed. Ovaries were washed three times in 50 mL of sterile HEPES-buffered saline (HBS, pH 7.4). Granulosa cells were harvested by incubating ovaries in a hypertonic medium consisting of serum-free McCoy*s SA medium (Gibco Life Sciences, Grand Island, N.Y.) supplemented with […], […], 5 ng/mL sodium selenite (ITS, Sigma Chemical Co., St. Louis Mo.), […] L-glutamine, 100 nM testosterone, 100 nM DES and 100 U/mL penicillin/[…]/250 ng/mL amphotericin B (antibiotic/antimycotic, Gibco) containing 0.5 M sucrose and 0.1 mM EGTA. Ovaries were then incubated for 45 min. at 37 C. in a humidified incubator gassed with 95% air/5% CO2. They were washed 3 times with 10 mL isotonic medium (hypertonic medium without sucrose and EGTA) and incubated another 45 min. in isotonic medium at 37 C. Granulosa cells were harvested by squeezing the ovaries between two sterile glass microscope slides. Isolated granulosa cells were then placed in an 50 mL centrifuge tube and washed two times by the addition of 50 mL serum-free McCoy*s 5A medium followed by centrifugation at 700×g for 5 min. After the final spin, the cells were resuspended by gentle trituration in 25 mL serum-free medium, an aliquot counted in a hemocytometer and viability estimated by trypan blue exclusion. Cells were plated into 24-well Nunc tissue culture plates at 200,000 viable cells/well in […].
Procedure: Following plating of the cells, the plates are incubated at 37 C for 2-4 hours at which time the treatments are added to the cells. Treatments are added to the wells at 2× the desired final concentration in […] in isotonic medium containing 0.2% BSA. The cells are incubated at 37 C. for 72 h. At the end of the incubation period, the medium is removed from the wells and tested for estradiol concentration by radioimmunoassay.
Experimental Groups: In the 24-well format, the plate was divided into 6 columns of 4 wells/column. One plate per compound was used to test either agonist or antagonist modes. […]
Four different doses of compound were tested in the antagonist mode. In addition, one column was used for a negative control (vehicle alone) and the other remaining column for a positive control (ED50 of FSH alone).
The doses of compound chosen to test were extrapolated from the initial functional screening process. Along with the plates testing compounds, another plate was run in parallel using a dose-response of FSH (0.01-100 ng/mL) as a positive control.
Analysis of Results: Estradiol was expressed as pg/mL. Estradiol secretion in agonist mode, or the ability of the compound to inhibit FSH-induced estradiol secretion in antagonist, was compared to the appropriate negative and positive controls. Data were analyzed statistically by analysis of variance with Huber weighting of log transformed data. Paired differences were determined using the LSD test
Reference Compounds: Test compounds were compared to the effect of purified or recombinant human FSH.

SMILES	pIC50
COCCOCCOc1ccc(C(=O)Nc2ccc(/C=C/c3ccc(NC(=O)c4ccc(OCCOCCOC)c(S(=O)(=O)N5CCOCC5)c4)cc3S(=O)(=O)O)c(S(=O)(=O)O)c2)cc1S(=O)(=O)N1CCOCC1 [Example 30a, 2,2′-[(E)-1,2-Ethenediyl]bis[5-[[4-[2-(2-methoxyethoxy)ethoxy]-3-(4-morpholinylsulfonyl)benzoyl]amino]benzenesulfonic Acid]]	5.72
CS(=O)(=O)c1ccc(C(=O)Nc2ccc(/C=C/c3ccc(NC(=O)c4ccc(S(C)(=O)=O)c(S(=O)(=O)N5CCOCC5)c4)cc3S(=O)(=O)O)c(S(=O)(=O)O)c2)cc1S(=O)(=O)N1CCOCC1 [Example 30d, 2,2′-[(E)-1,2-Ethenediyl]bis[5-[[4-(methylsulfonyl)-3-(4-morpholinylsulfonyl)benzoyl]amino]benzenesulfonic Acid]]	5.55
CSc1ccc(C(=O)Nc2ccc(/C=C/c3ccc(NC(=O)c4ccc(S(C)(=O)=O)c([N+](=O)[O-])c4)cc3S(=O)(=O)O)c(S(=O)(=O)O)c2)cc1S(=O)(=O)N1CCOCC1 [Example 30e]	5.74
COCCNS(=O)(=O)c1cc(C(=O)Nc2ccc(/C=C/c3ccc(NC(=O)c4ccc(S(C)(=O)=O)c([N+](=O)[O-])c4)cc3S(=O)(=O)O)c(S(=O)(=O)O)c2)ccc1OC [Example 30f]	5.10
COc1ccc(C(=O)Nc2ccc(/C=C/c3ccc(NC(=O)c4ccc(OC)c(S(=O)(=O)N5CCS(=O)(=O)CC5)c4)cc3S(=O)(=O)O)c(S(=O)(=O)O)c2)cc1S(=O)(=O)N1CCS(=O)(=O)CC1 [Example 30k, 2,2′-[(E)-1,2-Ethenediyl]bis[5-[[3-[(1,1-dioxido-4-thiomorpholinyl)sulfonyl]-4-methoxybenzoyl]amino]benzenesulfonic Acid]]	5.51
COCCNS(=O)(=O)c1cc(C(=O)Nc2ccc(/C=C/c3ccc(NC(=O)c4ccc(OC)c(S(=O)(=O)NCCOC)c4)cc3S(=O)(=O)O)c(S(=O)(=O)O)c2)ccc1OC [Example 30m, 2,2′-[(E)-1,2-Ethenediyl]bis[5-[[4-methoxy-3-[[(2-methoxyethyl)amino]sulfonyl]benzoyl]amino]benzenesulfonic Acid]]	5.17
CS(=O)(=O)c1ccc(C(=O)Nc2ccc(/C=C/c3ccc(NC(=O)c4ccc(S(C)(=O)=O)cc4)cc3S(=O)(=O)O)c(S(=O)(=O)O)c2)cc1 [Example 30q, 2,2′-[(E)-1,2-Ethenediyl]bis[5-[[4-(methylsulfonyl)benzoyl]amino]benzenesulfonic Acid]]	5.89
O=C(Nc1ccc(/C=C/c2ccc(NC(=O)c3ccc(OC4CCOCC4)c(S(=O)(=O)N4CCOCC4)c3)cc2S(=O)(=O)O)c(S(=O)(=O)O)c1)c1ccc(OC2CCOCC2)c(S(=O)(=O)N2CCOCC2)c1 [Example 30r, 2,2′-[(E)-1,2-Ethenediyl]bis[5-[[3-(4-morpholinylsulfonyl)-4-[(tetrahydro-2H-pyran-4-yl)oxy]benzoyl]amino]benzenesulfonic Acid]]	5.96
COc1ccc(C(=O)Nc2ccc(/C=C/c3ccc(NC(=O)c4ccc(OC)c(S(=O)(=O)N5CCOCC5)c4)cc3S(=O)(=O)O)c(S(=O)(=O)O)c2)cc1S(=O)(=O)N1CCOCC1 [Example 30s, 2,2′-[(E)-1,2-Ethenediyl]bis[5-[[4-methoxy-3-(4-morpholinylsulfonyl)benzoyl]amino]benzenesulfonic Acid]]	5.92
COCCOc1ccc(C(=O)Nc2ccc(/C=C/c3ccc(NC(=O)c4ccc(OCCOC)c(S(=O)(=O)N5CCOCC5)c4)cc3S(=O)(=O)O)c(S(=O)(=O)O)c2)cc1S(=O)(=O)N1CCOCC1 [Example 30t, 2,2′-[(E)-1,2-Ethenediyl]bis[5-[[4-(2-methoxyethoxy)-3-(4-morpholinylsulfony)benzoyl]amino]benzenesulfonic Acid]]	5.85
CCS(=O)(=O)c1ccc(C(=O)Nc2ccc(/C=C/c3ccc(NC(=O)c4ccc(S(=O)(=O)CC)cc4)cc3S(=O)(=O)O)c(S(=O)(=O)O)c2)cc1 [Example 32f, 2,2′-[(E)-1,2-Ethenediyl]bis[5-[[4-(ethylsulfonyl)benzoyl]amino]benzenesulfonic Acid]]	5.55
COc1ccc(C(=O)Nc2ccc(/C=C/c3ccc(NC(=O)c4ccc(OC)c(S(=O)(=O)N5CCSCC5)c4)cc3S(=O)(=O)O)c(S(=O)(=O)O)c2)cc1S(=O)(=O)N1CCSCC1 [Example 33d, 2,2′-[(E)-1,2-Ethenediyl]bis[5-[[4-methoxy-3-(4-thiomorpholinylsulfonyl)benzoyl]amino]benzenesulfonic Acid]]	5.00
COc1ccc(C(=O)Nc2ccc(/C=C/c3ccc(NC(=O)c4ccc(OC)c(S(=O)(=O)N5CCCC5)c4)cc3S(=O)(=O)O)c(S(=O)(=O)O)c2)cc1S(=O)(=O)N1CCCC1 [Example 33e, 2,2′-[(E)-1,2-Ethenediyl]bis[5-[[4-methoxy-3-(1-pyrrolidinylsulfonyl)benzoyl]amino]benzenesulfonic Acid]]	5.68
COc1ccc(C(=O)Nc2ccc(/C=C/c3ccc(NC(=O)c4ccc(OC)c(S(=O)(=O)N5CCN(C(C)=O)CC5)c4)cc3S(=O)(=O)O)c(S(=O)(=O)O)c2)cc1S(=O)(=O)N1CCN(C(C)=O)CC1 [Example 34a, 2,2′-[(E)-1,2-Ethenediyl]bis[5-[[3-[(4-acetyl-1-piperazinyl)sulfonyl]-4-methoxybenzoyl]amino]benzenesulfonic Acid]]	4.24
COc1ccc(C(=O)Nc2ccc(/C=C/c3ccc(NC(=O)c4ccc(OC)c(S(=O)(=O)N5CCN(C=O)CC5)c4)cc3S(=O)(=O)O)c(S(=O)(=O)O)c2)cc1S(=O)(=O)N1CCN(C=O)CC1 [Example 34b, 2,2′-[(E)-1,2-Ethenediyl]bis[5-[[3-[(4-formyl-1-piperazinyl)sulfonyl]-4-methoxybenzoyl]amino]benzenesulfonic Acid]]	5.31
COc1ccc(C(=O)Nc2ccc(CCc3ccc(NC(=O)c4ccc(S(C)(=O)=O)cc4)cc3S(=O)(=O)O)c(S(=O)(=O)O)c2)cc1S(=O)(=O)N1CCOCC1 [Example 43a, 5-[[4-Methoxy-3-(4-morpholinylsulfonyl)benzoyl]amino]-2-[2-[4-[[4-(methylsulfonyl)benzoyl]amino]-2-sulfophenyl]ethyl]benzenesulfonic Acid]	4.77

Same assay, conditions: antagonist mode, inhibition of FSH-induced estradiol secretion (ED50 of FSH, 0.5 ng/mL), rat granulosa cells, 72 h

SMILES	pIC50
CS(=O)(=O)c1ccc(C(=O)Nc2ccc(/C=C/c3ccc(NC(=O)c4ccc(S(C)(=O)=O)c([N+](=O)[O-])c4)cc3S(=O)(=O)O)c(S(=O)(=O)O)c2)cc1[N+](=O)[O-] [Example 30c, 2.2′-[(E)-1,2-Ethenediyl]bis[5-[[(4-methylsulfonyl)-3-(nitro)-benzoyl]amino]benzenesulfonic Acid]]	5.42
COc1ccc(C(=O)Nc2ccc(/C=C/c3ccc(NC(=O)c4ccc(S(C)(=O)=O)cc4)cc3S(=O)(=O)O)c(S(=O)(=O)O)c2)cc1S(=O)(=O)N1CCOCC1 [Example 30g]	5.62
